Assay results reported in ChEMBL document CHEMBL1145726, “Structure-based design of agents targeting the bacterial ribosome” (Bioorg Med Chem Lett, 2003).
In brackets after ≈: the same amount, converted by molar mass.

Tests used:
Format in all cases: functional
[1] = test system: Escherichia coli; experiment: In vitro antibacterial activity was determined
[2] = Inhibition of L11BD (L11 binding domain) 58-mer methylation of A1067 at 50 uM
[3] = test system: Nucleic Acid; experiment: % Inhibition of rRNA methylation at 50 uM
[4] = test system: Escherichia coli; experiment: In vitro inhibition of protein translation in Escherichia coli
[5] = test system: Escherichia coli; experiment: Inhibitory concentration of compound against Escherichia coli in vitro protein translation

Row | Compound | MIC95 [1] [µg/mL] | inhibition [2] [%] | inhibition [3] [%] | Inhibition [4] [%] | IC50 [5] [nM]
1 | C[C@H](O)[C@@H](NC(=O)[C@@H](NC(=O)c1csc(-c2ccccc2)n1)[C@@H](C)O)c1nc(C(=O)O)cs1 | > 200 | 35 | 27 |  | 
2 | C[C@H](O)[C@H](NC(=O)c1csc(-c2ccccc2)n1)c1nc(C(=O)N2CCN(CCOCCO)CC2)cs1 | > 200 | 59 |  |  | 
3 | CC(C)[C@@H](NC(=O)[C@@H](NC(=O)c1csc(-c2ccccc2)n1)[C@@H](C)O)c1nc(C(=O)NCCCO)cs1 | > 200 | 37 | 37 | 48 | 
4 | C=C(NC(=O)C(=C)NC(=O)c1csc(C2=N[C@@H]3c4csc(n4)[C@H]4NC(=O)c5csc(n5)[C@H]([C@](C)(O)[C@@H](C)O)NC(=O)[C@H]5CSC(=N5)/C(=C/C)NC(=O)[C@H]([C@@H](C)O)NC(=O)c5csc(n5)[C@]3(CC2)NC(=O)[C@H](C)NC(=O)C(=C)NC(=O)[C@H](C)NC(=O)[C@H]([C@@H](C)CC)N[C@@H]2C=Cc3c([C@H](C)O)cc(nc3[C@H]2O)C(=O)O[C@@H]4C)n1)C(N)=O [THIOSTREPTON] | 0.015 (≈ 0.00901 µM) |  |  | 98 | 100

More lines, main results first:

Row | MIC95 [1] [µg/mL] | inhibition [2] [%] | Compound | inhibition [3] [%] | Inhibition [4] [%] | IC50 [5] [nM]
5 | > 200 | 28 | CC[C@@H](NC(=O)[C@@H](NC(=O)c1csc(-c2ccccc2)n1)[C@@H](C)O)c1nc(C(=O)NCc2ccc3c(c2)OCO3)cs1 | 13 | 31 | 
6 | > 200 | 24 | CC(C)[C@@H](NC(=O)[C@@H](NC(=O)c1csc(-c2ccccc2)n1)[C@@H](C)O)c1nc(C(=O)NCc2ccc3c(c2)OCO3)cs1 | 20 | 16 | 
